Source: US8735152B2, “Methods for inducing cell death in pluripotent stem cells and differentiated cells other than cardiac myocytes” (Daiichi Sankyo Company, Limited, priority 2009, dated 2014)

Columns and labels:
Format in all cases: cell-based
[1] = test system: human embryonic stem cell-derived embryoid bodies; experiment: Cell death inducing effect on residual stem cells in human embryonic stem cell-derived embryoid bodies and enrichment of cardiomyocytes; conditions: 0.45 M, 2 hours
Description: After passaging, human embryonic stem cells were subjected to suspension culture in a culture medium [α-MEM (minimum essential medium) (SIGMA), supplemented with 10% FBS (EQUITEC BIO), 100 units/ml penicillin, and 50 μg/ml streptomycin (GIBCO)] to induce formation of embryoid bodies. At 14-18 days after the start of differentiation (the start of suspension culture), autonomously pulsating cells started to differentiate, which was confirmed in a separate step that they were cardiomyocytes.
The embryoid bodies still maintained an autonomously pulsating ability after the passage of 3 months from the start of differentiation. They were partially treated with 0.1% collagenase (Wortington) and 0.1% trypsin (DIFCO) to be dispersed as fine cell masses. The cell masses were divided into two groups; one group was treated with 0.45 M mannitol (approximately equivalent to 720 mOsm/kg) for 2 hours, and the other group (control) was not treated with mannitol but treated with the same amount of a solution having the physiological osmotic pressure, Ads buffer (116.4 mM NaCl, 5.4 mM KCl, 5.6 mM dextrose, 10.9 mM NaH2PO4, 405.7 μM MgSO4, 20 mM Hepes, pH 7.3) for 2 hours. After the treatment, both cell groups were subjected to adherent culture for 3 days in a DMEM solution supplemented with 10% fetal calf serum.
The mannitol-treated cells and the control cells were analyzed in accordance with the experimental procedure of Example 1 using a mouse anti-Oct-3/4 monoclonal antibody (No. 084720 of BD Transduction Laboratories) and a goat anti-Nkx 2.5 antibody (No. N-19 of Santacruz) as primary antibodies, for the expression of the Oct-3/4 protein which was both a marker of embryonic stem cells and an intranuclear transcription factor, and for the expression of the Nkx 2.5 protein which was both a cardiomyocyte marker and an intranuclear transcription factor, respectively. The results for the control group, one of the two divided samples, are shown in FIG. 10 and the results for the test group subjected to 2-hr treatment with mannitol are shown in FIG. 11. The upper panels of FIG. 10 show the results of cardiomyocytes and the lower panels show the results of embryonic stem cells.
The embryoid bodies still maintained an autonomously pulsating ability after the passage of 3 months from the start of differentiation. They were partially treated with 0.1% collagenase (Wortington) and 0.1% trypsin (DIFCO) to be dispersed as fine cell masses. The cell masses were divided into two groups; one group was treated with saccharides (sugar alcohols: sorbitol, xylitol, and glycerol; sugars: sucrose and glucose; betaines: trimethylglycine) for 12 hours in an amount of 0.45 M (approximately equivalent to 700-780 mOsm/kg) or 0.6 M (approximately equivalent to 850-1000 mOsm/kg), and the other group (control) was not treated with those saccharides but treated with the same amount of a solution having the physiological osmotic pressure, Ads buffer (116.4 mM NaCl, 5.4 mM KCl, 5.6 mM dextrose, 10.9 mM NaH2PO4, 405.7 μM MgSO4, 20 mM Hepes, pH 7.3) for 2 hours. After the treatment, both cell groups were cultured for 12 hours in a DMEM solution supplemented with 10% fetal calf serum.
Samples of differentiated cells derived from human embryonic stem cells, as treated with 0.45 M glycerol (approximately equivalent to 710 mOsm/kg) or 0.6 M glycerol (approximately equivalent to 870 mOsm/kg), were examined for their morphology under the culture conditions. […] The cell death inducing effect was noticeable when the cells were exposed to glycerol for 10 hours and longer (FIG. 14).

[2] = test system: mouse embryonic stem cell-derived cardiomyocytes, residual undifferentiated embryonic stem cells and other cells; experiment: Mannitol treatment of culture system containing both embryonic stem cell-derived cardiomyocytes and residual embryonic stem cells; conditions: 0.45 M, 36 hours
Description: Mouse derived embryonic stem cells were treated by the method of Example 1 to form embryoid bodies, which were differentiated to a stage containing the programmed cardiomyocytes (precardiac mesoderms). Thus obtained embryoid bodies were treated with digestive enzymes (trypsin and collagenase) meticulously to ensure that no cell damage would be caused and the resulting partially dispersed embryoid bodies were subjected to another adherent culture. Upon a 5-day continued culture, populations of cardiomyocytes pulsating autonomously (the cell populations circled by the red lines), cell populations having the traits of embryonic stem cells-like cells (the cell populations circled by the yellow lines), and other cell populations were observed together (see FIG. 2(a)). In the next step, the culture medium for the mixed culture was replaced by a serum-free α-MEM culture medium containing mannitol in 0.45 M (approximately equivalent to 720 mOsm/kg) and ITS {insulin (10 mg/L), transferrin (5.5 mg/L), and sodium selenite ([…])} (GIBCO) and culture was performed for 36 hours. […] Subsequently, the culture medium was replaced by an α-MEM culture medium supplemented with 20% fetal calf serum and culture was continued, whereupon the cardiomyocytes restored autonomous pulsation in 1 or 2 days.

[3] = test system: human induced pluripotent stem cells (iPS cells); experiment: Cell death inducing effect on human induced pluripotent stem cells (TMRM, FACS); conditions: 0.45 M, 2 hours
Description: The human iPS cells were obtained from Stem Cell Research Center, Institute for Frontier Medical Sciences, Kyoto University (ES cell center sponsored by the National Bio-Resource Project). The cells were cultured basically in accordance with the same method as that in the case of human embryonic stem cells, i.e., in accordance with the same method as described in Example 5. After passaging, the cells were dispersed with each other using TE (0.25% trypsin (GIBCO) and 1 mM EDTA) and in accordance with a published document (Watanabe, K. et al., Nat. Biotechnol., 2007, 25: 681-686, Epub 2007 May 27), 10 μM of a ROCK inhibitor (Y27632) was added to suppress cell death. At the same time, the mitochondria in the live cells were stained with 50 nM TMRM. […] In the control, cells were aggregated with each other to make masses, so before FACS analysis, both samples were given another treatment with trypsin and EDTA to disperse the cells; thereafter, the samples were analyzed by FACS for the level of mitochondrial membrane potential on the basis of the fluorescent intensity of TMRM to check the state of survival of the stem cells; the results are shown in FIG. 12. […]

[4] = one week after the treatment, immunohistochemical technique

SMILES: OC[C@@H](O)[C@@H](O)[C@H](O)[C@H](O)CO [mannitol]
- Toxicity in cardiomyocytes [1]: does not show significant toxicity in cardiomyocytes
- Autonomously pulsating cells ([1]; then 3 days adherent culture): autonomously pulsating cell populations and autonomously pulsating single cells were found adherent to or suspended in the culture dish
- Colonies of cells assumed to be undifferentiated cells ([1]; then 3 days adherent culture): no such cell populations were found at all
- Type of surviving cells (Nkx 2.5) [1, 4]: a great majority of the surviving cells were Nkx 2.5 positive cardiomyocytes
- Type of surviving cells (Oct-3/4) [1, 4]: Oct-3/3 negative cells were hardly detectable
- State of cells other than cardiomyocytes (cell death) ([2]; then culture in medium with 20% fetal calf serum): virtually all cells other than cardiomyocytes were found dead
- Nkx 2.5 positive cardiomyocytes among the obtained cells ([2]; immunostaining): ≥ 98%
- Mitochondrial membrane potential (TMRM fluorescence, FACS) [3]: almost all of the cells treated with mannitol for 2 hours had lost membrane potential
